Converted amounts (≈) assume the structure as drawn. Like-named read-outs stand apart in the source and are kept apart here.
What was measured:
[1] = system: S. typhimurium NBRC13245; assay: Determination of minimum inhibitory concentration (MIC); format: cell-based, Salmonella typhimurium; settings: Salmonella enterica, read-out: MIC S. typhimurium
Summary of the method: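 Two-fold serial agar dilution on L agar and also on Mueller Hinton agar (pH 7.3); 10 µl of stationary-phase culture diluted in 0.85% NaCl to 10^6 cells/ml spotted per plate. MIC taken as lowest concentration inhibiting growth.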

[2] = system: Caulobacter crescentus; assay: Caulobacter growth (optical density, doubling time); format: cell-based; settings: for Doubling in A22 in WT Genetic Background / Doubling Time in A22 / Doubling in A22 when Replaced by WT mreB: cell mass over 6 hr, A660
Procedure: Similar volumes of solvent (methanol) alone had no effect on growth. […] This rapid effect on cell growth could be due to a disruption in cell wall deposition or could reflect a secondary response to some other cellular perturbation.
MreB Is the Direct Target of A22. To identify the cellular target(s) of A22, we carried out a screen for A22-resistant mutants by growing large numbers of Caulobacter on plates containing 10 μg/ml A22. We independently isolated 20 mutants that stably and repeatedly formed colonies on plates containing 10 μg/ml A22 and grew in liquid culture containing 10 μg/ml A22. Since MreB was proposed as a possible target of A22, we PCR-amplified and sequenced the mreB gene in the 20 A22-resistant strains and a control wild-type strain. Each of the 20 A22-resistant strains contained a single missense point mutation in its mreB gene, whereas the wild-type A22-sensitive strain had no mreB point mutations (Table 2). Though isolated independently, the 20 strains had only 7 different point mutations: one specific point mutation was found in 10 of the strains, another specific point mutation was found in 5 of the strains, and 5 additional point mutations were found in 1 strain each. Since all 7 of these mutations affected amino acids that are conserved between Caulobacter MreB and Thermotoga maritima MreB, they could be mapped onto the solved three-dimensional structure of T. maritima MreB. […] All of the resistant strains grow at a similar rate in rich PYE medium (w115 min/doubling), which is slower than wild-type cells without drug (87 min/doubling), but they are largely unaffected by the presence of A22 (w115 min/doubling) (Table 2).
Bacterial Strains and Growth Conditions. Caulobacter crescentus strains CB15N and derivatives were grown in PYE or M2G medium or agar plates supplemented with the appropriate combinations of antibiotics, glucose, xylose, A22, and the A22 diluent, methanol. The FROS strains labeled at both the origin and CC2943, CC3300, CC3656, and CC0091, or singly labeled at CC0786, and CC3192 were generated and characterized in a previous study, where they were referred to as MPO40, MPO53, MPO7, MPO133, MP156, and MP82, respectively. Growth and analysis conditions for the mreB depletion, holB:gfp, and FROS strains have been previously described. The methods for ΦCr30-mediated generalized phage transduction and swarmer cell isolation by Percoll density gradient centrifugation have also been described. Washes were performed by micro centrifugation at 8000 g. Twenty independent A22-resistant Caulobacter mutants were isolated by growing 20 single CB15N colonies overnight and plating 10^9 cells per culture on PYE plates containing 10 μg/ml A22. One A22-resistant colony from each plate was isolated, retested, and characterized. To sequence the mreB gene from these strains, mreB was PCR-amplified and the resulting band was gel-purified (Qiagen) and sequenced. Overlay PCR mutagenesis was used to introduce the […] point mutation (A509G) into the previously described PxyI:gfp:mreB construct.

[3] = system: Caulobacter DNA replication; assay: Analysis of DNA replication (32P-labeled dGTP incorporation, DNA-content FACS); format: cell-based, Caulobacter crescentus
Excerpt: We first examined the incorporation of radiolabeled dGTP into DNA, which linearly correlates with the rate of DNA replication. […] To assess the effect of A22 on DNA replication during the cell cycle, the radiolabeled nucleotide incorporation assay was repeated using synchronized cultures at different points in the cell cycle. Untreated cells display a dramatic rise in radioactivity levels characteristic of DNA replication initiation at the swarmer-to-stalked cell transition. This rise in radioactivity levels was also observed in A22-treated cells (FIG. 6A).
Finally, we examined the DNA content of A22-treated cells by FACS.
Analysis of DNA Replication. DNA replication was assessed by incorporation of 32P-labeled dGTP) or chromomycin-stained DNA-content FACS analysis as described previously.

[4] = system: HoIB-GFP; assay: HoIB-GFP (replisome) localization; format: cell-based, Caulobacter crescentus; settings: 1 hr treatment
Procedure: To assess the ability of these cells to assemble a replisome at the replication origins, A22 was administered to cells expressing a fusion of GFP to the HoIB subunit of DNA polymerase.

[5] = system: E. coli K-12 strains (ponB, mreB alleles); assay: MICs of mecillinam and A22 for E. coli K-12 strains; format: cell-based; settings: for MIC: Escherichia coli
Procedure: Determination of MIC Minimal inhibitory concentrations (MICs) were determined using a standard 2-fold serial dilution format on L agar plates. Ten microliters of stationary culture diluted in 0.85% NaCl to 10^6 cells/ml were spotted on per plate. […] MICs were also determined on Mueller Hinton agar plates (0.2% beef extract, 1.75% acid digest of casein, 0.15% soluble starch, 1.5% agar, pH 7.3).

[6] = system: E. coli JA221, JST975; assay: Cell shapes of A22-resistant mutant JA221 and parent JST975; format: cell-based; settings: 10 μg/ml A22
Procedure: FIG. 9. Effects of A22 and mecillinam on cell shapes of the A22-resistant mutant JA221. Exponentially growing cells of the A22-resistant mutant strain JA221 and the parent strain JST975 were treated with 1 μg/ml mecillinam or 10 μg/ml A22 for 2 h at 37° C. Differential interference contrast microphotographs are shown.
After prolonged (9 days) incubation of the JST975 assay plates, several isolated colonies that grew up within the clear growth inhibitory zones were purified on L plates and their A22-sensitivity was examined.

Structure (SMILES): N=C(N)SCc1ccc(Cl)c(Cl)c1 [Compound 1, S-(3,4-dichlorobenzyl)isothiourea]
- MIC ([1]; Example 2, methods as in Example 1): 3.13 µg/mL (≈ 13.3 µM)
- MIC ([1]; Table 1, NBRC13245): 3.13 µg/mL (≈ 13.3 µM)
- Effect on growth of Caulobacter cultures ([2]; 0.1-100 μg/ml, up to 6 hr): slowed growth in a dose-dependent fashion
- Doubling in A22 in WT Genetic Background ([2]; mreB allele: A325P): 115′
- Doubling in A22 in WT Genetic Background ([2]; mreB allele: D16G): 112′
- Doubling in A22 in WT Genetic Background ([2]; mreB allele: D192G): 116′
- Doubling in A22 in WT Genetic Background ([2]; mreB allele: L23R): 120′
- Doubling in A22 in WT Genetic Background ([2]; mreB allele: None (wt)): 156′
- Doubling in A22 in WT Genetic Background ([2]; mreB allele: P112S): 119′
- Doubling in A22 in WT Genetic Background ([2]; mreB allele: T167A): 105′
- Doubling in A22 in WT Genetic Background ([2]; mreB allele: V324A): 115′
- Doubling Time in A22 ([2]; mreB mutation: A325P): 116′
- Doubling Time in A22 ([2]; mreB mutation: D16G): 115′
- Doubling Time in A22 ([2]; mreB mutation: D192G): 118′
- Doubling Time in A22 ([2]; mreB mutation: L23R): 121′
- Doubling Time in A22 ([2]; mreB mutation: None (wt)): 148′
- Doubling Time in A22 ([2]; mreB mutation: P112S): 118′
- Doubling Time in A22 ([2]; mreB mutation: T167A): 110′
- Doubling Time in A22 ([2]; mreB mutation: V324A): 113′
- Time after A22 treatment at which a decline in growth rate was observed ([2]; rich PYE medium): 30 min
- Doubling in A22 when Replaced by WT mreB ([2]; strain: A325P): 144′
- Doubling in A22 when Replaced by WT mreB ([2]; strain: D16G): 150′
- Doubling in A22 when Replaced by WT mreB ([2]; strain: None (wt)): 145′
- Doubling in A22 when Replaced by WT mreB ([2]; strain: P112S): 146′
- Doubling in A22 when Replaced by WT mreB ([2]; strain: T167A): 148′
- Doubling in A22 when Replaced by WT mreB ([2]; strain: V324A): 142′
- Incorporation of radiolabeled dGTP, asynchronous cultures [3]: does not interfere with bulk DNA synthesis
- Incorporation of radiolabeled dGTP, synchronized cultures (replication initiation) ([3]; 10 μg/ml A22 or 5 mg/ml HU): slightly delayed replication initiation
- DNA content by FACS ([3]; 10 μg/ml, 8 hr): predominantly contained cells with two chromosomes
- HoIB-GFP localization [4]: no effect on HoIB-GFP localization
- MIC ([5]; read-out: MICs, strain JA221 (ponB −, mreB221)): 100 µg/mL (≈ 425 µM)
- MIC ([5]; read-out: MICs, strain JE1011 (ponB +, mreB +)): 6.25 µg/mL (≈ 26.6 µM)
- MIC ([5]; read-out: MICs, strain JM109/pMW218 (ponB +, mreB +/−)): 6.25 µg/mL (≈ 26.6 µM)
- MIC ([5]; read-out: MICs, strain JM109/pMreB1 (ponB +, mreB +/+)): 25 µg/mL (≈ 106 µM)
- MIC ([5]; read-out: MICs, strain JM109/pMreB221 (ponB +, mreB +/mreB221)): 100 µg/mL (≈ 425 µM)
- MIC ([5]; read-out: MICs, strain JST975 (ponB −, mreB +)): 1.6 µg/mL (≈ 6.8 µM)
- MIC ([5]; read-out: MICs, strain JSTA220 (ponB −, mreB +)): 3.12 µg/mL (≈ 13.3 µM)
- MIC ([5]; read-out: MICs, strain JSTA221 (ponB −, mreB221)): 100 µg/mL (≈ 425 µM)
- MIC ([5]; read-out: MICs, strain WA220 (ponB +, mreB +)): 6.25 µg/mL (≈ 26.6 µM)
- MIC ([5]; read-out: MICs, strain WA221 (ponB +, mreB221)): > 100 µg/mL
- MICs ([5]; strain JST975 (ponB −, mreB +), listed as A22): 3.125 µg/mL
- Cell shape of parent strain JST975 [6]: formed spherical cells
- Cell shape of resistant mutant JA221 [6]: grew as rods

From patent US7855228B2, “Antibiotics targeting MreB” (The Board of Trustees of the Leland Stamford Junior …, priority 2005, dated 2010)
